Measurements taken from PubChem BioAssay (NCI).
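How tested: cells in 96-well plates exposed to compound for 48 hours at five concentrations. GI50 is the concentration that inhibits growth by half. At the TGI there is no net growth.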

Tests used:
Test in all cases: NCI-60 cell line screen, 48 h
[1] = system: MCF7 breast
[2] = system: CCRF-CEM leukemia
[3] = system: HCT-15 colon
[4] = system: A498 renal
[5] = system: BT-549 breast
[6] = system: SK-MEL-2 melanoma
[7] = system: MOLT-4 leukemia
[8] = system: HL-60(TB) leukemia
[9] = system: K-562 leukemia
[10] = system: HOP-92 NSCLC

## COc1ccc(-c2coc3c4c(ccc3c2=O)OCO4)cc1OC
[1]
  TGI: > 100 µM
[2]
  TGI: > 100 µM
[3]
  TGI: > 100 µM
[4]
  TGI: > 100 µM
[5]
  TGI: > 100 µM
[6]
  TGI: > 100 µM
[7]
  TGI: > 100 µM
[8]
  TGI: > 100 µM
[9]
  TGI: > 100 µM
[10]
  TGI: > 100 µM

## COc1ccc(CCNC(=O)c2ccc(NC3=C(Cl)C(=O)N(Cc4ccccc4)C3=O)cc2)cc1OC
[1]
  GI50: 6.32 µM
  TGI: > 100 µM
[2]
  GI50: 0.48 µM
  TGI: 3.71 µM
[3]
  GI50: 4.1 µM
  TGI: > 100 µM
[4]
  GI50: 27.2 µM
  TGI: 72.1 µM
[5]
  GI50: 7.68 µM
  TGI: > 100 µM
[6]
  GI50: 16.8 µM
  TGI: 54.1 µM
[7]
  GI50: 2.28 µM
  TGI: 4.78 µM
[8]
  GI50: 2.83 µM
  TGI: 4.49 µM
[9]
  GI50: 2.21 µM
  TGI: 5.21 µM
[10]
  GI50: 2.22 µM
  TGI: 5.75 µM

## CCN(Cc1ccccc1C)c1ccc(CO)c(Cl)c1
[1]
  GI50: 2 µM
  TGI: 14.7 µM
[2]
  GI50: 15.5 µM
  TGI: 38.2 µM
[3]
  GI50: 8.57 µM
  TGI: 29.3 µM
[4]
  GI50: 0.0283 µM
  TGI: 0.114 µM
[5]
  GI50: 15.8 µM
  TGI: 30.1 µM
[6]
  GI50: 4.47 µM
  TGI: 18.1 µM
[7]
  GI50: 15.8 µM
  TGI: 39.2 µM
[8]
  GI50: 11.3 µM
  TGI: 34.4 µM
[9]
  GI50: 3.1 µM
  TGI: 13.8 µM
[10]
  GI50: 1.83 µM
  TGI: 9.14 µM

## O[C@H](c1cc(C(F)(F)F)nc2c(C(F)(F)F)cccc12)[C@@H]1CCCCN1
[1]
  GI50: 2.46 µM
  TGI: 6.8 µM
[2]
  GI50: 8.52 µM
  TGI: 40.7 µM
[3]
  GI50: 11.9 µM
  TGI: 27 µM
[4]
  GI50: 8.98 µM
  TGI: 22.1 µM
[5]
  GI50: 12.1 µM
  TGI: 25.5 µM
[6]
  GI50: 3.26 µM
  TGI: 11.9 µM
[7]
  GI50: 3.51 µM
  TGI: 11.1 µM
[8]
  GI50: 2.08 µM
  TGI: 4.51 µM
[9]
  GI50: 2.87 µM
  TGI: 9.17 µM
[10]
  GI50: 1.79 µM
  TGI: 8.43 µM

## O=C(CSC1CCc2ccccc21)N/N=C/c1ccccc1O (stereo not given)
[1]
  GI50: 2.89 µM
  TGI: > 100 µM
[2]
  GI50: 1.64 µM
  TGI: 45.4 µM
[3]
  GI50: 2.27 µM
  TGI: > 100 µM
[4]
  GI50: 14.7 µM
  TGI: 44 µM
[5]
  GI50: 5.46 µM
  TGI: 34.2 µM
[6]
  GI50: 5.26 µM
  TGI: 24.6 µM
[7]
  GI50: 3.79 µM
  TGI: 56.7 µM
[8]
  GI50: 2.6 µM
  TGI: 8.72 µM
[9]
  GI50: 4.59 µM
  TGI: > 100 µM
[10]
  GI50: 2.61 µM
  TGI: 37.5 µM

## C=C1C(=O)O[C@H]2[C@H]1CC/C(COC(=O)/C=C\C(=O)NCc1ccc(Cn3c(=O)sn(CCCC)c3=O)cc1)=C\CC[C@@]1(C)O[C@@H]21
[1]
  GI50: 0.365 µM
  TGI: 2.03 µM
[2]
  GI50: 0.275 µM
  TGI: 1.63 µM
[3]
  GI50: 0.202 µM
  TGI: 0.467 µM
[4]
  GI50: 1.18 µM
  TGI: 2.44 µM
[5]
  GI50: 0.909 µM
  TGI: 2.23 µM
[6]
  GI50: 1.67 µM
  TGI: 3.31 µM
[7]
  GI50: 0.34 µM
  TGI: 1.52 µM
[8]
  GI50: 0.396 µM
  TGI: 1.77 µM
[9]
  GI50: 0.316 µM
  TGI: 4.82 µM
[10]
  GI50: 0.655 µM
  TGI: 2.04 µM

## CCN1CCC(O)(/C=C/c2ccc(C)cc2)C(C(=O)/C=C/c2ccc(C)cc2)C1 (stereo not given)
[1]
  TGI: 6.36 µM
[2]
  TGI: 5.62 µM
[3]
  TGI: 16.2 µM
[4]
  TGI: 24.6 µM
[5]
  TGI: 13.7 µM
[6]
  TGI: 15.9 µM
[7]
  TGI: 4.59 µM
[8]
  TGI: 5.15 µM
[9]
  TGI: 6.07 µM
[10]
  TGI: 19.6 µM

## CCOC(=O)c1c(NC(=O)c2cccc(C(F)(F)F)c2)sc2c(CN(C)C)c(O)ccc12
[1]
  GI50: 2.81 µM
  TGI: 12.1 µM
[2]
  GI50: 3.41 µM
  TGI: 11.7 µM
[3]
  GI50: 2.13 µM
  TGI: 5.77 µM
[4]
  GI50: 12.4 µM
  TGI: 34.5 µM
[5]
  GI50: 12.2 µM
  TGI: 26.9 µM
[6]
  GI50: 2.57 µM
  TGI: 6.92 µM
[7]
  GI50: 3.77 µM
  TGI: 38.8 µM
[8]
  GI50: 1.89 µM
  TGI: 4.26 µM
[9]
  GI50: 1.83 µM
  TGI: 4.76 µM
[10]
  GI50: 2.76 µM
  TGI: 15.2 µM

## COc1cc(OC)c(/C=C/c2c3ccccc3cc[n+]2C)c(OC)c1
[1]
  GI50: 1.02 µM
  TGI: 18.2 µM
[2]
  GI50: 2.08 µM
  TGI: > 72.1 µM
[3]
  GI50: 24.7 µM
  TGI: > 100 µM
[4]
  GI50: 1 µM
  TGI: 7.26 µM
[5]
  GI50: 1.58 µM
  TGI: 21.8 µM
[6]
  GI50: 2.64 µM
  TGI: 6.3 µM
[7]
  GI50: 3.1 µM
  TGI: 32.8 µM
[8]
  GI50: 0.811 µM
  TGI: 7.32 µM
[9]
  GI50: 0.863 µM
  TGI: > 100 µM
[10]
  GI50: 1.8 µM
  TGI: 12.4 µM
